Reference: the NIST ThermoML archive (doi:10.1016/j.jct.2017.01.016)

Assay: xn = mol fraction of the nth substance listed
Conditions: 101 kPa, Liquid; for viscosity: Capillary tube (Ostwald / Ubbelohde) method; for speed of sound: Frequency=3 MHz, Linear variable-path acoustic interferometer

C1COCCO1 [1,4-dioxane] + Cc1ccccc1
Conditions | speed of sound [m/s] | viscosity [mPa·s]
293.15 K, x1 = 0.0688 | 1330.1 | 0.6346
293.15 K, x1 = 0.1373 | 1331.5 | 0.6812
293.15 K, x1 = 0.2112 | 1333 | 0.732
293.15 K, x1 = 0.2858 | 1334.8 | 0.784
293.15 K, x1 = 0.3552 | 1336.5 | 0.8327
293.15 K, x1 = 0.4361 | 1338.6 | 0.8901
293.15 K, x1 = 0.5064 | 1340.7 | 0.9405
293.15 K, x1 = 0.5819 | 1343.2 | 0.9951
293.15 K, x1 = 0.6506 | 1346 | 1.045
293.15 K, x1 = 0.7212 | 1349.1 | 1.097
293.15 K, x1 = 0.7903 | 1352.5 | 1.148
293.15 K, x1 = 0.864 | 1356.9 | 1.203
293.15 K, x1 = 0.9336 | 1361.8 | 1.256
293.15 K, x1 = 1 | 1367.2 | 1.306
298.15 K, x1 = 0.0688 | 1308.4 | 0.5952
298.15 K, x1 = 0.1373 | 1309.5 | 0.6366
298.15 K, x1 = 0.2112 | 1310.9 | 0.682
298.15 K, x1 = 0.2858 | 1312.4 | 0.7282
298.15 K, x1 = 0.3552 | 1313.9 | 0.7716
298.15 K, x1 = 0.4361 | 1315.9 | 0.8229
298.15 K, x1 = 0.5064 | 1317.9 | 0.8679
298.15 K, x1 = 0.5819 | 1320.4 | 0.9166
298.15 K, x1 = 0.6506 | 1323.2 | 0.9613
298.15 K, x1 = 0.7212 | 1326.3 | 1.008
298.15 K, x1 = 0.7903 | 1329.8 | 1.053
298.15 K, x1 = 0.864 | 1334.2 | 1.103
298.15 K, x1 = 0.9336 | 1339.1 | 1.15
298.15 K, x1 = 1 | 1344.7 | 1.195
303.15 K, x1 = 0.0688 | 1286.3 | 0.56
303.15 K, x1 = 0.1373 | 1287.2 | 0.597
303.15 K, x1 = 0.2112 | 1288.4 | 0.6373
303.15 K, x1 = 0.2858 | 1289.7 | 0.6785
303.15 K, x1 = 0.3552 | 1291.2 | 0.7173
303.15 K, x1 = 0.4361 | 1293.2 | 0.7631
303.15 K, x1 = 0.5064 | 1295.2 | 0.8033
303.15 K, x1 = 0.5819 | 1297.8 | 0.8469
303.15 K, x1 = 0.6506 | 1300.6 | 0.887
303.15 K, x1 = 0.7212 | 1303.9 | 0.9286
303.15 K, x1 = 0.7903 | 1307.5 | 0.9696
303.15 K, x1 = 0.864 | 1312.2 | 1.014
303.15 K, x1 = 0.9336 | 1317.3 | 1.056
303.15 K, x1 = 1 | 1323.1 | 1.096
308.15 K, x1 = 0.0688 | 1264.8 | 0.5284
308.15 K, x1 = 0.1373 | 1265.5 | 0.5619
308.15 K, x1 = 0.2112 | 1266.5 | 0.5984
308.15 K, x1 = 0.2858 | 1267.7 | 0.6357
308.15 K, x1 = 0.3552 | 1269 | 0.6709
308.15 K, x1 = 0.4361 | 1270.9 | 0.7124
308.15 K, x1 = 0.5064 | 1272.9 | 0.7489
308.15 K, x1 = 0.5819 | 1275.4 | 0.7885
308.15 K, x1 = 0.6506 | 1278.2 | 0.8249
308.15 K, x1 = 0.7212 | 1281.6 | 0.8627
308.15 K, x1 = 0.7903 | 1285.3 | 0.8998
308.15 K, x1 = 0.864 | 1290.1 | 0.9399
308.15 K, x1 = 0.9336 | 1295.3 | 0.978
308.15 K, x1 = 1 | 1301.2 | 1.014
313.15 K, x1 = 0.0688 | 1242.8 | 0.4969
313.15 K, x1 = 0.1373 | 1243.4 | 0.5278
313.15 K, x1 = 0.2112 | 1244.3 | 0.5615
313.15 K, x1 = 0.2858 | 1245.4 | 0.596
313.15 K, x1 = 0.3552 | 1246.7 | 0.6284
313.15 K, x1 = 0.4361 | 1248.6 | 0.6666
313.15 K, x1 = 0.5064 | 1250.6 | 0.7003
313.15 K, x1 = 0.5819 | 1253.2 | 0.7368
313.15 K, x1 = 0.6506 | 1256 | 0.7702
313.15 K, x1 = 0.7212 | 1259.4 | 0.805
313.15 K, x1 = 0.7903 | 1263.3 | 0.8393
313.15 K, x1 = 0.864 | 1268.2 | 0.8762
313.15 K, x1 = 0.9336 | 1273.6 | 0.9114
313.15 K, x1 = 1 | 1279.7 | 0.945
318.15 K, x1 = 0.0688 | 1221 | 0.467
318.15 K, x1 = 0.1373 | 1221.5 | 0.4958
318.15 K, x1 = 0.2112 | 1222.3 | 0.5272
318.15 K, x1 = 0.2858 | 1223.3 | 0.5593
318.15 K, x1 = 0.3552 | 1224.6 | 0.5895
318.15 K, x1 = 0.4361 | 1226.5 | 0.6251
318.15 K, x1 = 0.5064 | 1228.6 | 0.6564
318.15 K, x1 = 0.5819 | 1231.2 | 0.6903
318.15 K, x1 = 0.6506 | 1234.1 | 0.7215
318.15 K, x1 = 0.7212 | 1237.6 | 0.7539
318.15 K, x1 = 0.7903 | 1241.6 | 0.7857
318.15 K, x1 = 0.864 | 1246.7 | 0.82
318.15 K, x1 = 0.9336 | 1252.3 | 0.8527
318.15 K, x1 = 1 | 1258.6 | 0.884
